Measurements taken from ChEMBL document CHEMBL5230136, “A review: Biologically active 3,4-heterocycle-fused coumarins” (Eur J Med Chem, 2021).
Values after ≈ are worked out from the molar mass of the structure shown.

Assays:
[1] = Antioxidant activity assessed as DPPH radical scavenging activity; format: functional
[2] = target: Dopamine receptors; D2 & D4 (Homo sapiens, UniProt P14416+P21917); experiment: Binding affinity to human D2/D4 receptor assessed as inhibition constant; format: protein assay
[3] = system: Xanthomonas citri pv. malvacearum; experiment: Antibacterial activity against Xanthomonas citri pv. malvacearum assessed as reduction in bacterial growth; format: functional; parameters: concentration or dose not given beside the values
Fusarium verticillioides = experiment: Antifungal activity against Fusarium verticillioides assessed as reduction in fungal growth; format: functional; parameters: concentration or dose not given beside the values
Rhizoctonia solani = experiment: Antifungal activity against Rhizoctonia solani assessed as reduction in fungal growth; format: functional; parameters: concentration or dose not given beside the values
Erysiphe necator = experiment: Antifungal activity against powdery mildew Erysiphe necator assessed as reduction in fungal growth; format: functional; parameters: concentration or dose not given beside the values
Phytophthora = experiment: Antimicrobial activity against Phytophthora assessed as reduction in microbial growth; format: functional; parameters: concentration or dose not given beside the values
Botrytis cinerea [4] = experiment: Antifungal activity against gray mold Botrytis cinerea assessed as reduction in fungal growth; format: functional; parameters: concentration or dose not given beside the values
Ehrlich = experiment: cells; details: Mus musculus
Description: Anticancer activity against mouse EAC cells assessed as reduction in cell viability

Staphylococcus aureus = experiment: Antibacterial activity against Staphylococcus aureus assessed as zone of inhibition; format: functional
Bacillus cereus = experiment: Antibacterial activity against Bacillus cereus assessed as zone of inhibition; format: functional
Serratia marcescens [5] = experiment: Antibacterial activity against Serratia marcescens assessed as zone of inhibition; format: functional
Proteus mirabilis = experiment: Antibacterial activity against Proteus mirabilis assessed as zone of inhibition; format: functional
Botrytis cinerea [6] = experiment: Antifungal activity against Botrytis cinerea; format: functional, organism-based
Aspergillus ochraceus = experiment: Antifungal activity against Aspergillus ochraceus assessed as zone of inhibition; format: functional
Penicillium chrysogenum = experiment: Antifungal activity against Penicillium chrysogenum assessed as zone of inhibition; format: functional
Penicillium italicum = experiment: Antifungal activity against Penicillium italicum assessed as zone of inhibition; format: functional
Fusarium oxysporum = experiment: Antifungal activity against Fusarium oxysporum assessed as zone of inhibition; format: functional
Serratia marcescens [7] = experiment: Antibacterial activity against Serratia marcescens assessed as zone of inhibition at 20 mg/ml; format: functional; details: read-out: IZ
Aspergillus niger = experiment: Antifungal activity against Aspergillus niger assessed as zone of inhibition; format: functional

`COc1ccc(C2SCCNc3c2c(=O)oc2cc(O)ccc32)c(O)c1` (centres undefined) showed an IC50 [1] of 120000 nM.
`COc1ccc2c3c(c(=O)oc2c1)CN(Cc1ccc(Cl)cc1)CC3` gave a Ki [2] of 667 nM.
For `O=c1oc2c(ccc3ccccc32)c2c1C(c1ccccc1)NC(c1ccccc1)C2` (centres undefined), the Activity [3] was 9%, the Activity (Fusarium verticillioides) was 18% and the Activity (Rhizoctonia solani) was 30%. The Activity (Erysiphe necator) was 68%, the Activity (Phytophthora) was 83% and the Activity (Botrytis cinerea [4]) was 32%.
In the case of `O=C1c2ccccc2-c2nc3c(c(-c4ccccc4)c21)c(=O)oc1ccccc13`, the IC50 (Ehrlich) is reported as 130 nM.
In the case of `CC1(C)S[C@@H]2[C@H](NC(=O)[C@H](N)c3ccccc3)C(=O)N2[C@H]1C(=O)O` [AMPICILLIN], the “inhibition zone (IZ)” value (Staphylococcus aureus) is reported as 26 mm, the “inhibition zone (IZ)” value (Bacillus cereus) is reported as 25 mm and the “inhibition zone (IZ)” value (Serratia marcescens [5]) is reported as 26 mm. The “inhibition zone (IZ)” value (Proteus mirabilis) was 27 mm.
Work on `C=CCOc1ccc2c(c1)oc(=O)c1c(C)c(C)oc12` yielded an EC50 (Botrytis cinerea [6]) of 1.72 µg/mL (≈ 6.36 µM).
With `O=c1oc2ccccc2c2c1C(c1ccc(Cl)cc1)c1c(ncn3nc(CCl)nc13)O2` (centres undefined) the “inhibition zone (IZ)” value (Staphylococcus aureus) was 23 mm, the “inhibition zone (IZ)” value (Bacillus cereus) was 22 mm and the “inhibition zone (IZ)” value (Serratia marcescens [5]) was 23 mm. For the same compound, the “inhibition zone (IZ)” value (Proteus mirabilis) was 22 mm, the “inhibition zone (IZ)” value (Aspergillus ochraceus) was 19 mm and the “inhibition zone (IZ)” value (Penicillium chrysogenum) was 19 mm.
With `CC1C(C#N)=C(N)Oc2c1c(=O)oc1ccccc21` (centres undefined) the “inhibition zone (IZ)” value (Staphylococcus aureus) was 18 mm, the “inhibition zone (IZ)” value (Bacillus cereus) was 19 mm and the “inhibition zone (IZ)” value (Serratia marcescens [5]) was 18 mm. The “inhibition zone (IZ)” value (Proteus mirabilis) was 20 mm, the “inhibition zone (IZ)” value (Aspergillus ochraceus) was 16 mm and the “inhibition zone (IZ)” value (Penicillium chrysogenum) was 18 mm.
`COc1ccc2c3c(c(=O)oc2c1)CN(Cc1ccccc1Cl)CC3` showed a Ki [2] of 171 nM.
Compound `COc1ccc2c3c(c(=O)oc2c1)CN(Cc1ccc(F)cc1)CC3` has a Ki [2] of 1350 nM.
For `CC1c2c(c3ccccc3oc2=O)Oc2ncn(C)c(=N)c21` (centres undefined), the “inhibition zone (IZ)” value (Staphylococcus aureus) was 18 mm, the “inhibition zone (IZ)” value (Bacillus cereus) was 17 mm and the “inhibition zone (IZ)” value (Serratia marcescens [5]) was 19 mm. The “inhibition zone (IZ)” value (Proteus mirabilis) was 19 mm, the “inhibition zone (IZ)” value (Aspergillus ochraceus) was 19 mm and the “inhibition zone (IZ)” value (Penicillium chrysogenum) was 15 mm.
`COc1ccc2c3c(c(=O)oc2c1)CN(CCc1ccccc1)CC3` showed a Ki [2] of 734 nM.
In the case of `O=c1oc2ccccc2c2nc3c(c(-c4ccccc4)c12)CCC/C3=C\c1ccccc1`, the IC50 (Ehrlich) is reported as 130 nM.
`O=c1oc2ccccc2c2nc(/C=C/c3ccccc3)cc(-c3ccccc3)c12` showed an IC50 (Ehrlich) of 120 nM.
In the case of `Cc1ccc2c3c(c(=O)oc2c1)C(c1ccccc1)NC(c1ccccc1)C3` (centres undefined), the Activity [3] is reported as 0%, the Activity (Fusarium verticillioides) is reported as 20% and the Activity (Rhizoctonia solani) is reported as 13%. The Activity (Erysiphe necator) was 38%, the Activity (Phytophthora) was 83% and the Activity (Botrytis cinerea [4]) was 0%.
With NYSTATIN the inhibition zone (IZ) (Penicillium italicum) was 20 mm, the inhibition zone (IZ) (Fusarium oxysporum) was 26 mm and the inhibition zone (IZ) (Aspergillus ochraceus) was 24 mm. The inhibition zone (IZ) (Penicillium chrysogenum) was 24 mm.
`CCOc1ccc2c(c1)oc(=O)c1c(C)c(C)oc12` gave an EC50 (Botrytis cinerea [6]) of 1.72 µg/mL (≈ 6.66 µM).
`O=c1oc2ccccc2c2nc(-c3ccccc3)cc(-c3ccc([N+](=O)[O-])cc3)c12` showed an IC50 (Ehrlich) of 120 nM.
With `CN1C(c2ccccc2)Cc2c(c(=O)oc3c2ccc2ccccc23)C1c1ccccc1` (centres undefined) the Activity [3] was 9%, the Activity (Fusarium verticillioides) was 14% and the Activity (Rhizoctonia solani) was 0%. It also gave an Activity (Erysiphe necator) of 8%, an Activity (Phytophthora) of 0% and an Activity (Botrytis cinerea [4]) of 0%.
With `CCOC(=O)c1nc2c3c(ncn2n1)Oc1c(c(=O)oc2ccccc12)C3c1ccc(Cl)cc1` (centres undefined) the zone of inhibition at 20000 µg/mL (Serratia marcescens [7]) was 25 mm, the “inhibition zone (IZ)” value (Staphylococcus aureus) was 23 mm and the “inhibition zone (IZ)” value (Bacillus cereus) was 22 mm. For the same compound, the “inhibition zone (IZ)” value (Serratia marcescens [5]) was 25 mm, the “inhibition zone (IZ)” value (Proteus mirabilis) was 23 mm and the “inhibition zone (IZ)” value (Aspergillus niger) was 14 mm. The “inhibition zone (IZ)” value (Aspergillus ochraceus) was 19 mm and the “inhibition zone (IZ)” value (Penicillium chrysogenum) was 20 mm.
`COc1ccc2c3c(c(=O)oc2c1)CN(Cc1ccc(Cl)c(Cl)c1)CC3` gave a Ki [2] of 95 nM.
